For 17 compounds, IC50 and inhibition results are on record in patent US10385057B2, “Pyrazole compounds and methods of making and using same” (Lundbeck La Jolla Research Center, Inc., priority 2015, dated 2019).

One experiment has as its target T1, FAAH (Mus musculus, UniProt O08914).
T1 construct: mouse brain membrane fraction or cell lysates for mouse assays; from tissue
T1 sequence (O08914 1-579): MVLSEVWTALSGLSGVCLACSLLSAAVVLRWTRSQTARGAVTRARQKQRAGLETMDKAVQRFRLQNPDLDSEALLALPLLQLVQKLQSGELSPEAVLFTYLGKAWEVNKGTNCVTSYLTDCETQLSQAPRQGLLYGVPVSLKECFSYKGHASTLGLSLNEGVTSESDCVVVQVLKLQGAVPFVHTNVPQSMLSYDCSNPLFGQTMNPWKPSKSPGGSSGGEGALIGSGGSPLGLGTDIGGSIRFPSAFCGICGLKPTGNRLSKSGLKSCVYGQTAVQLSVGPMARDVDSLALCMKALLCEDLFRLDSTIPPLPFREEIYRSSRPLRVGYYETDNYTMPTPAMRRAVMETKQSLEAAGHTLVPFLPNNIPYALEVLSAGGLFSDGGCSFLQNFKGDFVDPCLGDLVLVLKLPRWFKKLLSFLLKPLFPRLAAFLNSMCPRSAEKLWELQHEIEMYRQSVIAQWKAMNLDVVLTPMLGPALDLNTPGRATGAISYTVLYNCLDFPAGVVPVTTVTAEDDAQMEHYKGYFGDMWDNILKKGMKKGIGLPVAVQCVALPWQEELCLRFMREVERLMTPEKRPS
The experiment can be described thus: In vitro competitive activity-based protein profiling, mouse FAAH. It counts as biochemical. The following applies: for inhibition at 1 µM: read-out: FAAH % inh. 1 μM (mouse). In outline:
(§1)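 Mouse brain membranes or cell lysates (mouse) and human prefrontal cortex or cell membrane fractions (human), 1.0 mg/mL protein, preincubated with inhibitor 30 min at 37 °C, then FP-Rh or HT-01 probe 30 min at 37 °C. SDS-PAGE; MAGL and FAAH activity from in-gel fluorescence band intensity.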

A further experiment deals with T2, MAGL (Mus musculus, UniProt O35678).
T2 construct: mouse brain membrane fraction or cell lysates for mouse assays; from tissue
T2 sequence (O35678 1-303): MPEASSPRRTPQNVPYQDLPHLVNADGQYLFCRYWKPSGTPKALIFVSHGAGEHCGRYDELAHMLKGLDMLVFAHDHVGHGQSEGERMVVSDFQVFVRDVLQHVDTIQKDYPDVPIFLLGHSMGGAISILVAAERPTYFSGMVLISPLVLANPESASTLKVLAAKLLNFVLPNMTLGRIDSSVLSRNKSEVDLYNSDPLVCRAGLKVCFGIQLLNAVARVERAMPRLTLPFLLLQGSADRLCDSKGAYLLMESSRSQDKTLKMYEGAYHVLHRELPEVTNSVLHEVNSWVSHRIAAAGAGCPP
The experiment can be described thus: In vitro competitive activity-based protein profiling, mouse MAGL. It counts as biochemical. Particulars: for inhibition at 1 µM: read-out: MAGL % inh. 1 μM (mouse). In outline:
as §1

Take `CNC(=O)c1cnn(C(=O)N2CCC3(CCN(Cc4ccc(Cl)cc4)C3)C2)c1` (stereo not shown) [Example 38, 1-(7-(4-chlorobenzyl)-2,7-diazaspiro[4.4]nonane-2-carbonyl)-N-methyl-1H-pyrazole-4-carboxamide]: the IC50 on FAAH is 100 to 1000 nM; at MAGL, 1000 to 10000 nM. Moreover, the inhibition at 1 µM at FAAH was ≥ 75%; at MAGL, 0 to 25%.
The like results for `O=C(N1CCC2(CCN(Cc3cccc(C(F)(F)F)c3)C2)C1)n1cc(C(F)(F)F)cn1` (stereo not shown) [Example 172, (4-(trifluoromethyl)-1H-pyrazol-1-yl)(7-(3-(trifluoromethyl)benzyl)-2,7-diazaspiro[4.4]nonan-2-yl)methanone] were, in that order, ≤ 100 nM, ≤ 100 nM, ≥ 75% and ≥ 75%.
The like results for `CN(Cc1cccc(C(F)(F)F)c1)[C@@H]1C[C@@H]2CN(C(=O)n3cc(Cl)cn3)C[C@@H]2C1` [Example 80, (4-chloro-1H-pyrazol-1-yl)(cis-5-(methyl(3-(trifluoromethyl)benzyl)amino)hexahydrocyclopenta[c]pyrrol-2(1H)-yl)methanone] were, in that order, ≤ 100 nM, ≤ 100 nM, ≥ 75% and ≥ 75%.
In the case of `O=C(N1CC2CN(Cc3ccccc3F)CC2C1)n1cc(C(F)(F)F)cn1` (stereo not shown) [Example 152, (5-(2-fluorobenzyl)hexahydropyrrolo[3,4-c]pyrrol-2(1H)-yl)(4-(trifluoromethyl)-1H-pyrazol-1-yl)methanone], the IC50 on FAAH and on MAGL was ≤ 100 nM each time. Besides, the inhibition at 1 µM at FAAH and at MAGL was ≥ 75% each time.
Turning to `O=C(N1C[C@H]2C[C@@H](NCc3cccc(Cl)c3)C[C@H]2C1)n1cc(Cl)cn1` [Example 66, (4-chloro-1H-pyrazol-1-yl)(cis-5-((3-chlorobenzyl)amino)hexahydrocyclopenta[c]pyrrol-2(1H)-yl)methanone], on FAAH, the IC50 is ≤ 100 nM and the inhibition at 1 µM is ≥ 75%. For the same compound, at MAGL, the IC50 was 100 to 1000 nM and the inhibition at 1 µM was ≥ 75%.
On to `NC(=O)c1cnn(C(=O)N2CCC3(CCN(Cc4ccc(-c5nccs5)cc4Cl)C3)C2)c1` (stereo not shown) [Example 201, 1-(7-(2-chloro-4-(thiazol-2-yl)benzyl)-2,7-diazaspiro[4.4]nonane-2-carbonyl)-1H-pyrazole-4-carboxamide], for which the inhibition at 1 µM at FAAH and at MAGL was ≥ 75% in each case.
Regarding `CNC(=O)c1cnn(C(=O)N2CC3CN(Cc4cc(Cl)ccc4Cl)CC3C2)c1` (stereo not shown) [Example 21, 1-(5-(2,5-dichlorobenzyl)octahydropyrrolo[3,4-c]pyrrole-2-carbonyl)-N-methyl-1H-pyrazole-4-carboxamide], at FAAH, the IC50 is ≤ 100 nM and the inhibition at 1 µM was ≥ 75%. For the same compound, at MAGL, the IC50 was in the range of 100 to 1000 nM and the inhibition at 1 µM was ≥ 75%.
On to `CN(Cc1ccc(C(F)(F)F)cc1)[C@@H]1C[C@@H]2CN(C(=O)n3cc(C(=O)N4CCCC4)cn3)C[C@@H]2C1` [Example 97, (cis-5-(methyl(4-(trifluoromethyl)benzyl)amino)hexahydrocyclopenta[c]pyrrol-2(1H)-yl)(4-(pyrrolidine-1-carbonyl)-1H-pyrazol-1-yl)methanone], for which the inhibition at 1 µM is ≥ 75% at FAAH and 50 to 75% on MAGL.
For `CN(Cc1ccccc1Cl)[C@@H]1C[C@@H]2CN(C(=O)n3cc(Cl)cn3)C[C@@H]2C1` [Example 58, (4-chloro-1H-pyrazol-1-yl)(cis-5-((2-chlorobenzyl)(methyl)amino)hexahydrocyclopenta[c]pyrrol-2(1H)-yl)methanone], on FAAH, the IC50 was ≤ 100 nM and the inhibition at 1 µM was ≥ 75%. For the same compound, at MAGL, the IC50 fell in the range of 100 to 1000 nM and the inhibition at 1 µM was ≥ 75%.
On to `CC(=O)N(Cc1ccccc1Cl)[C@@H]1C[C@@H]2CN(C(=O)n3cc(Cl)cn3)C[C@@H]2C1` [Example 62, N-(cis-2-(4-chloro-1H-pyrazole-1-carbonyl)octahydrocyclopenta[c]pyrrol-5-yl)-N-(2-chlorobenzyl)acetamide], for which, on FAAH, the IC50 lay within 100 to 1000 nM and the inhibition at 1 µM was ≥ 75%. Besides, at MAGL, the IC50 lay within 100 to 1000 nM and the inhibition at 1 µM is ≥ 75%.
For the compound `CC(=O)N(Cc1ccccc1Cl)[C@H]1C[C@@H]2CN(C(=O)n3cc(Cl)cn3)C[C@@H]2C1` [Example 63, N-(trans-2-(4-chloro-1H-pyrazole-1-carbonyl)octahydrocyclopenta[c]pyrrol-5-yl)-N-(2-chlorobenzyl)acetamide], the inhibition at 1 µM on FAAH was 25 to 50%; at MAGL it was ≥ 75%.
The like results for `O=C(c1cnn(C(=O)N2CC3CN(Cc4cc(Cl)cc(C(F)(F)F)c4)CC3C2)c1)N1CCOCC1` (stereo not shown) [Example 10, (5-(3-chloro-5-(trifluoromethyl)benzyl)hexahydropyrrolo[3,4-c]pyrrol-2(1H)-yl)(4-(morpholine-4-carbonyl)-1H-pyrazol-1-yl)methanone] were, in that order, ≥ 75% and ≥ 75%.
Regarding `CC(=O)N(Cc1ccc(Cl)cc1)[C@@H]1C[C@@H]2CN(C(=O)n3cc(Cl)cn3)C[C@@H]2C1` [Example 69, N-(cis-2-(4-chloro-1H-pyrazole-1-carbonyl)octahydrocyclopenta[c]pyrrol-5-yl)-N-(4-chlorobenzyl)acetamide], on FAAH, the IC50 was ≤ 100 nM and the inhibition at 1 µM was ≥ 75%. In addition, at MAGL, the IC50 is ≤ 100 nM and the inhibition at 1 µM was ≥ 75%.
Turning to `CN(Cc1ccccc1C(F)(F)F)[C@@H]1C[C@@H]2CN(C(=O)n3cc(C(=O)N4CCN(C5CC5)CC4)cn3)C[C@@H]2C1` [Example 94, (4-cyclopropylpiperazin-1-yl)(1-(cis-5-(methyl(2-(trifluoromethyl)benzyl)amino)octahydrocyclopenta[c]pyrrole-2-carbonyl)-1H-pyrazol-4-yl)methanone], the inhibition at 1 µM is 0 to 25% at FAAH and ≥ 75% at MAGL.
On to `CN(Cc1cc(Cl)ccc1C(F)(F)F)[C@H]1C[C@@H]2CN(C(=O)n3cc(C(N)=O)cn3)C[C@@H]2C1` [Example 215, 1-(trans-5-((5-chloro-2-(trifluoromethyl)benzyl)(methyl)amino)octahydrocyclopenta[c]pyrrole-2-carbonyl)-1H-pyrazole-4-carboxamide], for which the inhibition at 1 µM on FAAH and on MAGL was ≥ 75% throughout.
Regarding `CNC(=O)c1cnn(C(=O)N2CCC3(CCN(Cc4cc(Cl)cc(C(F)(F)F)c4)C3)C2)c1` (stereo not shown) [Example 44, 1-(7-(3-chloro-5-(trifluoromethyl)benzyl)-2,7-diazaspiro[4.4]nonane-2-carbonyl)-N-methyl-1H-pyrazole-4-carboxamide], the inhibition at 1 µM on FAAH and on MAGL was ≥ 75% in each case.
As for `O=C(c1cnn(C(=O)N2CCC3(CCN(Cc4cccc(C(F)(F)F)c4)C3)C2)c1)N1CCN(C2CC2)CC1` (stereo not shown) [Example 33, (4-cyclopropylpiperazin-1-yl)(1-(7-(3-(trifluoromethyl)benzyl)-2,7-diazaspiro[4.4]nonane-2-carbonyl)-1H-pyrazol-4-yl)methanone], the inhibition at 1 µM is 50 to 75% on FAAH and ≥ 75% at MAGL.

As usually defined, the IC50 is the concentration needed to halve the response being measured. The low end stands for inhibition by little substance, the high end for a need for much substance.
